Results from patent publication US10851092B2, “Pyridine compound” (Daiichi Sankyo Company, Limited, priority 2016, dated 2020).
Like-named read-outs stand apart in the source and are kept apart here.

Experiments:
KDR kinase = KDR kinase (Homo sapiens (Human), UniProt P35968); assay: Evaluation of KDR kinase inhibiting activity (cell system), HUVEC, AlphaLISA; format: cell-based
Experimental: HUVEC cells were seeded on a plate at a cell density of 1500 cells per well, and then cultured overnight. The test compound (10 uM, 2.5 uM, 625 nM, 156 nM, […], 10 nM, 2.5 nM, or 0.6 nM) was added to each well, followed by culturing the obtained mixture for 2 hours. Thereafter, VEGF165 (Peprotech, #100-20) was added to the culture at a final concentration of 50 ng/ml, and the obtained mixture was then reacted at 37° C. for 5 minutes. Thereafter, the resulting cells were lysed with 50 ul of Lysis buffer included in AlphaLISA SureFire Ultra (Perkin Elmer, # ALSU-PVGFR-A500), and Acceptor beads and Donor beads were then added to 10 ul of the cell lysate according to the instruction manual included with the aforementioned kit. The mixture thus obtained was reacted at room temperature overnight, and thereafter, a KDR kinase inhibiting activity rate was measured using Envision (Perkin Elmer).
The value for a well to which only the Lysis buffer had been added was subtracted as a background from all of the values. Thereafter, the value for a well to which […] had been added and the test compound had not been added was defined as a KDR kinase activity of 100%, and the obtained value was corrected.

RET-wild type = RET-wild type (Homo sapiens (Human), UniProt P07949); assay: Evaluation of RET kinase inhibiting activity (cell system), Ba/F3 cells overexpressing Myc tagged RET; format: cell-based
RET-wild type, sequence (P07949 29-1114): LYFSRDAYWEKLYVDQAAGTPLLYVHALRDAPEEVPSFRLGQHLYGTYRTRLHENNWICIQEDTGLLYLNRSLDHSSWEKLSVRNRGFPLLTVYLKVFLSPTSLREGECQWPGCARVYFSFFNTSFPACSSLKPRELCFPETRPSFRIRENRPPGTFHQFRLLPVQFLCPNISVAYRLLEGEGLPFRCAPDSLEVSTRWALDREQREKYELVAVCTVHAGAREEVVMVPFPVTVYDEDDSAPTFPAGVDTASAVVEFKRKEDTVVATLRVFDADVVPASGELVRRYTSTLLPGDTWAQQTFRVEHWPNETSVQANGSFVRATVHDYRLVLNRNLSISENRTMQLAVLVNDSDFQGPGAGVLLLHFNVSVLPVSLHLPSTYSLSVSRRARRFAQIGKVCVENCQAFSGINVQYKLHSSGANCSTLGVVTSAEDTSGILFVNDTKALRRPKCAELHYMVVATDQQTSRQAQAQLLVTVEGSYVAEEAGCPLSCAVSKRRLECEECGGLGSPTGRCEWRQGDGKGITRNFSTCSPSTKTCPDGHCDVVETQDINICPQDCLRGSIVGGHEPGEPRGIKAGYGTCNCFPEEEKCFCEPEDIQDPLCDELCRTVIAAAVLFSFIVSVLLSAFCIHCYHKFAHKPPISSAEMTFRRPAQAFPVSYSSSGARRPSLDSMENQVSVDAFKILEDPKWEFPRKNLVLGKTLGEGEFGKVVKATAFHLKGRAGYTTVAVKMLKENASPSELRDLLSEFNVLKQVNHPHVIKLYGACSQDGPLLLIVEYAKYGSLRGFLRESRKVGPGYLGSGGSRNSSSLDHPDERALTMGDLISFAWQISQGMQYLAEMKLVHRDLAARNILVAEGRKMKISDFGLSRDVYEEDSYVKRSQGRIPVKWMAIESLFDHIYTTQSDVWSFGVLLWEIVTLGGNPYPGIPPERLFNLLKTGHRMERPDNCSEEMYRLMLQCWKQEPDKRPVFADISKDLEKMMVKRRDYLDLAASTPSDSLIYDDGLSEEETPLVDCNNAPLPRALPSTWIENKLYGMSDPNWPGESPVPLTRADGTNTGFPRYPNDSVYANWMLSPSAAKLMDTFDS
Experimental: (§1) Thereafter, 1 mL of Cell Lysis Buffer (Cell signaling technology, #9803), a single tablet of Phosphatase inhibitor (Roche, #04906837001), and a single tablet of Protease inhibitor (Roche, #0469312400) were added to 9 mL of MilliQ, and 20 ul of the obtained mixture was then added to each well. The mixture thus obtained was placed on ice for 20 minutes, so that the cells were lysed. A 5-ul aliquot was taken from the cell lysate, and thereafter, 64 nl of Myc antibody (Cell signaling technology, #3946) and Streptavidin Donor beads in an equal amount of 102 nl of P-Tyr-100 Acceptor beads included in the Alpha Screen Phosphotyrosine (P-Tyr-100) assay kit (Perkin Elmer, #6760620C) were added to the aliquot in accordance with the instruction manual included with the aforementioned assay kit. The obtained mixture was reacted at room temperature overnight, and a RET kinase inhibiting activity rate was then measured using Envision.

[1] = molecular target: RET recombinant protein (RET-wild type) (Homo sapiens (Human), UniProt P07949); assay: Evaluation of RET kinase inhibiting activity (cell-free system), mobility shift assay; format: biochemical
RET recombinant protein (RET-wild type), sequence (P07949 29-1114): as above
Experimental: (§2) 19 uL of the RET kinase solution was added to each of lines A to P of a 384-well plate, and thereafter, the test compound at each concentration was added to lines C to N, and further, 1 uL of dimethyl sulfoxide (hereinafter referred to as DMSO) was added to each of lines A, B, O and P. Thereafter, the obtained mixtures were each preincubated at room temperature for 20 minutes. Furthermore, a substrate solution A containing ATP (final concentration: 1 mM) and a substrate solution B containing no ATP, both in addition to a reaction buffer and FL-Peptide 22 (PerkinElmer, #760366, final concentration: 1.5 uM) were produced. The substrate solution A was added in an amount of 5 uL to lines B to 0, whereas the substrate solution B was added in an amount of 5 uL to lines A and P. The obtained mixtures were each incubated at 28° C. for 45 minutes. A reaction termination solution (100 mM HEPES (pH 7.4), 0.015% Briji-35, 40 mM EDTA, and 0.1% Coating Reagent 3) was added in an amount of 40 ul to the reaction mixture, so as to terminate the reaction.
(§3) Using EZ Reader II (Perkin Elmer), a substrate peptide was separated from a phosphorylated peptide in the reaction solution, and the product ratio (P/(P+S)) calculated from the peak (S) of the substrate peptide and the peak (P) of the phosphorylated peptide was used for evaluation. The inhibition of the test compound having each concentration was obtained by the following formula (automatically calculated using the software of EZ Reader II System). Inhibition (%)=100×(1−Ci/Co) (a) Ci: Conversion rate of a reaction of a test compound with substrate solution A−conversion rate of a reaction of DMSO with substrate solution B Co: Conversion rate of a reaction of DMSO with substrate solution A−conversion rate of a reaction of DMSO with substrate solution B
(§4) Based on the inhibition rates of the test compound at 12 different concentrations according to the formula (a), a 4-parameter logistic regression curve was drawn. At this time, the 4-parameter logistic regression equation is expressed as follows. Inhibition (%)=Bottom+(Top−Bottom)/(1+(X/IC50)^^slope) (b) Top: Upward asymptote Slope: Slope parameter IC50: Value X of (Top+Bottom)/2 Bottom: Downward asymptote X: Concentration of test compound
(§5) First, any given initial values are inputted into Top, Slope, IC50, Bottom (Top=100, Slope=−1, IC50=approx. IC50, and Bottom=0), so that a regression curve was drawn. Subsequently, a least-squares method was executed to the sum of squares of a difference between the measured value and the estimated value obtained from formula (b) to calculate the coefficient of the 4-parameter logistic regression equation, so as to calculate IC50.

[2] = molecular target: RET-Gatekeeper mutation (V804L) recombinant protein (Homo sapiens (Human), UniProt P07949, V804L); assay: Evaluation of RET kinase inhibiting activity (cell-free system), gatekeeper mutant; format: biochemical
RET-Gatekeeper mutation (V804L) recombinant protein, sequence (P07949 29-1114 V804L): as the sequence (P07949 29-1114) above, with V776L counted along it
Experimental: as §2, §3, §4, §5

[3] = system: phosphorylated RET in Ba/F3-RET-V804M tumors; assay: One shot PKPD analysis, Ba/F3-RET-V804M tumors; format: in vivo, mice
RET-V804L = RET-V804L (Homo sapiens (Human), UniProt P07949, V804L); assay: Evaluation of RET kinase inhibiting activity (cell system), Ba/F3 cells overexpressing RET (V804L) mutant; format: cell-based; conditions: Ba/F3, compound 2 hours
RET-V804L, sequence (P07949 29-1114 V804L): as the sequence (P07949 29-1114) above, with V776L counted along it
Experimental: as §1

[4] = system: non-small cell lung cancer cell line LC-2/ad having a CCDC6-RET fusion gene; assay: Cell growth inhibitory activity, non-small cell lung cancer cell line LC-2/ad; format: cell-based; conditions: Homo sapiens, 216 h; LC-2/ad cells, 9 days, CellTiter-Glo
Experimental: The cell growth inhibitory activity of the test compound on the non-small cell lung cancer cell line LC-2/ad having a CCDC6-RET fusion gene (RIKEN, J Thorac Oncol. 2012 December, 7(12), 1872-6) was measured.
LC-2/ad cells were seeded on a 96-well plate at a cell density of 5,000 cells per well, and then cultured at 37° C. in the presence of 5% CO2 overnight in a medium prepared by mixing RPMI-1640 containing 15% FBS and 25 mM HEPES with Ham's F12 Mixture at a mixing ratio of 1:1. Thereafter, the test compound was diluted, and then added to the 96-well plate. As a negative control, dimethyl sulfoxide (hereinafter referred to as DMSO) was added. The obtained mixture was cultured at 37° C. in the presence of 5% CO2 for 9 days, and thereafter, a cell count measuring reagent CellTiter-Glo® Luminescent Cell Viability Assay (Promega, # G7571) was added to the culture, followed by stirring the mixture. Thereafter, using a luminescence measurement device Envision, the luminescence intensity was measured. The measurement value of a well to which only the medium had been added was define as a survival rate of 0%, and the measurement value of a well to which DMSO had been added was defined as a survival rate of 100%. The survival rate of the LC-2/ad cells in the presence of each concentration of the test compound was calculated.

[5] = system: thyroid gland cancer cell line TT having RET activating mutation (C634W); assay: Cell growth inhibitory activity, thyroid gland cancer cell line TT; format: cell-based; conditions: Homo sapiens, 216 h; TT cells, 9 days, CellTiter-Glo
Experimental: The cell growth inhibitory activity of the test compound on the thyroid gland cancer cell line TT having RET activating mutation (C634W) (Biochemical and Biophysical Research Communications. 1995 Feb. 27 (207), 1022-1028) was measured.
TT cells were seeded on a 96-well plate at a cell density of 5,000 cells per well, and were then cultured at 37° C. in the presence of 5% CO2 overnight in an F-12K nutrient mixture medium containing 10% FBS. Thereafter, the compound was diluted, and then added to the 96-well plate. As a negative control, dimethyl sulfoxide (hereinafter referred to as DMSO) was added. The obtained mixture was cultured at 37° C. in the presence of 5% CO2 for 9 days, and thereafter, a cell count measuring reagent CellTiter-Glo® Luminescent Cell Viability Assay was added to the culture, followed by stirring the mixture. Thereafter, using a luminescence measurement device Envision (Perkin Elmer), the luminescence intensity was measured. The measurement value of a well to which only the medium had been added was define as a survival rate of 0%, and the measurement value of a well to which DMSO had been added was defined as a survival rate of 100%. The survival rate of the TT cells in the presence of each concentration of the test compound was calculated.

[6] = cell system, comparator compounds, Form: Free, read-out: IC50 (nM) KDR
[7] = comparator compounds, Form: Free, read-out: IC50 (nM) RET
[8] = cell system, Form: Mesylate, read-out: IC50 (nM) KDR

KDR kinase, sequence (P35968 20-1356): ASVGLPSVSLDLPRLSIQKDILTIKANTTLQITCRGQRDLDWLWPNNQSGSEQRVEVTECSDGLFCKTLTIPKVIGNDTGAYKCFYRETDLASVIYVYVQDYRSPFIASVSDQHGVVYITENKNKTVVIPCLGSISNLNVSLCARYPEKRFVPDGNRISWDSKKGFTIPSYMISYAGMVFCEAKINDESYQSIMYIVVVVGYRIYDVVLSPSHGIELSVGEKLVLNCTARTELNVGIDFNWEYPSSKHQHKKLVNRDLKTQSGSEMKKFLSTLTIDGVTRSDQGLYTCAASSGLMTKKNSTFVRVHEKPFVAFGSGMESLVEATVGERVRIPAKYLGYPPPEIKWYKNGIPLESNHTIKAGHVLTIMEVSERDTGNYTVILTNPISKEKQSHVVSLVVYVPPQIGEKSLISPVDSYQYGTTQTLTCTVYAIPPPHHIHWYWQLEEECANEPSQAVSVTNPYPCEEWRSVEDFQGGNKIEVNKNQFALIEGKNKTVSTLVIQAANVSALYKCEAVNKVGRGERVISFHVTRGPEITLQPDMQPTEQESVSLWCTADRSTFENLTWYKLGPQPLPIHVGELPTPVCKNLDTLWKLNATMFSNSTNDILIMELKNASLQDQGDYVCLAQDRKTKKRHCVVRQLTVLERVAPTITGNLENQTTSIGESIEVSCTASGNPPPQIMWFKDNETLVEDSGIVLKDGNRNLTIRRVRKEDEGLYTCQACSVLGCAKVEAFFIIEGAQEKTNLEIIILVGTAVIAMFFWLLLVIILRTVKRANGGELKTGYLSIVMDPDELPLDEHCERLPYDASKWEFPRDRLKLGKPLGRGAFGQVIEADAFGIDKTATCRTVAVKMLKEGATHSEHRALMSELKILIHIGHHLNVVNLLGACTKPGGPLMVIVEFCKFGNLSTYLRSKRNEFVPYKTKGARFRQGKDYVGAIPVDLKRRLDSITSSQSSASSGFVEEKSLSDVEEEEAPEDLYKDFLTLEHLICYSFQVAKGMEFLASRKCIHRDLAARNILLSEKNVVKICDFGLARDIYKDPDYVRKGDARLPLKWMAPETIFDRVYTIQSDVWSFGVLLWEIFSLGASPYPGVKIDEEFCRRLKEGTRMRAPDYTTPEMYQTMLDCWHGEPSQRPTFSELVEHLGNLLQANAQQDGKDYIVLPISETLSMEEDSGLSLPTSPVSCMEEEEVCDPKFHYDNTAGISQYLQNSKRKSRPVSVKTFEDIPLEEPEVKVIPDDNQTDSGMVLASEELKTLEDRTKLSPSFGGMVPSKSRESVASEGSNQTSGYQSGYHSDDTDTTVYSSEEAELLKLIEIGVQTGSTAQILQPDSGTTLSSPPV

COc1cc2cc(-c3ccc(CC(=O)Nc4cc(C(C)(C)C(F)(F)F)n[nH]4)cc3)cnc2cc1OC [Ref Ex. 2, 2-[4-(6,7-Dimethoxyquinolin-3-yl)phenyl]-N-[3-(1,1,1-trifluoro-2-methylpropan-2-yl)-1H-pyrazol-5-yl]-acetamide, reference compound]
IC50 (KDR kinase; [6]): 16 nM
IC50 (RET-wild type; [7]): 5 nM

COc1cc2ncc(-c3cnc(CC(=O)Nc4cc(C(C)(C)C(F)(F)F)on4)c(F)c3)nc2cc1OC [Compound 229, reference compound]
inhibitory effect in vitro ([1]; in vitro): strong inhibitory effect
IC50 ([1]; non-cell system, read-out: Biochemical assay (non-cell system) IC50 (nM) RET-WT): 1.5 nM
IC50 ([2]; non-cell system, read-out: Biochemical assay (non-cell system) IC50 (nM) RET-V804L): 1.7 nM
suppression of phosphorylated RET (pRET) in Ba/F3-RET-V804M tumors ([3]; 10 mg/kg oral): did not suppress
exposure in tumors ([3]; Ba/F3-RET-V804M tumors, 10 mg/kg oral): poor exposure in tumors
Relative phosphorylation of RET (%) in Ba/F3-RET-V804M tumors ([3]; Dose: 10 mg/kg oral, six hours after administration, relative to vehicle): 98%

COc1cc2cc(-c3ccc(CC(=O)Nc4cc(C(C)(C)C(F)(F)F)n[nH]4)cn3)cnc2cc1OC [Example 6, 2-[6-(6,7-Dimethoxyquinolin-3-yl)pyridin-3-yl]-N-[3-(1,1,1-trifluoro-2-methylpropan-2-yl)-1H-pyrazol-5-yl]acetamide Methanesulfonate]
IC50 (KDR kinase; KDR, HUVEC cells, VEGF165 50 ng/ml, compound 2 hours, read-out: IC50): 566 nM
IC50 (KDR kinase; [8]): 566 nM

COc1cc2cc(-c3ccc(CC(=O)Nc4cc(C(C)(C)C(F)(F)F)n[nH]4)cn3)cnc2cc1OC [Example 5, 2-[6-(6,7-Dimethoxyquinolin-3-yl)pyridin-3-yl]-N-[3-(1,1,1-trifluoro-2-methylpropan-2-yl)-1H-pyrazol-5-yl]acetamide]
IC50 ([1]; cell-free system, ATP 1 mM, read-out: RET-wild type IC50): 2.2 nM
IC50 ([2]; cell-free system, ATP 1 mM, read-out: RET-V804L IC50): 2.7 nM
IC50 (RET-wild type; Ba/F3, compound 2 hours, read-out: RET-wild type IC50): 10 nM
IC50 (RET-V804L): 15 nM
IC50 [4]: 82 nM
IC50 [5]: 17 nM

COc1cc2cc(-c3ccc(CC(=O)Nc4cc(C(C)(C)C(F)(F)F)no4)c(F)c3)cnc2cc1OC [Ref Ex. 3, 2-[4-(6,7-Dimethoxyquinolin-3-yl)-2-fluorophenyl]-N-[3-(1,1,1-trifluoro-2-methylpropan-2-yl)-1,2-oxazol-5-yl]acetamide, reference compound]
IC50 (KDR kinase; [6]): 6 nM
IC50 (RET-wild type; [7]): 8 nM

CCc1cc2c(cc1N1CCC(N3CCOCC3)CC1)C(C)(C)c1[nH]c3cc(C#N)ccc3c1C2=O [Alectinib, 9-Ethyl-6,6-dimethyl-8-[4-(morpholin-4-yl)piperidin-1-yl]-11-oxo-6,11-dihydro-5H-benzo[b]carbazole-3-carbonitrile, reference compound]
IC50 [4]: 308 nM
IC50 [5]: 112 nM

COc1cc2cc(-c3ccc(CC(=O)Nc4cc(C(C)(C)C(F)(F)F)on4)cn3)cnc2cc1OC [Example 2, 2-[6-(6,7-Dimethoxyquinolin-3-yl)pyridin-3-yl]-N-[5-(1,1,1-trifluoro-2-methylpropan-2-yl)-1,2-oxazol-3-yl]acetamide Methanesulfonate]
IC50 (KDR kinase; [8]): 828 nM

COc1cc2cc(-c3ccc(CC(=O)Nc4cc(C(C)(C)C(F)(F)F)no4)cc3)cnc2cc1OC [Ref Ex. 1, 2-[4-(6,7-Dimethoxyquinolin-3-yl)phenyl]-N-[3-(1,1,1-trifluoro-2-methylpropan-2-yl)-1,2-oxazol-5-yl]-acetamide, reference compound]
IC50 (KDR kinase; cell system, comparator compounds, Form: Mesylate, read-out: IC50 (nM) KDR): 7 nM
IC50 (RET-wild type; [7]): 8 nM

COc1cc2ncc(-c3ccc(CC(=O)Nc4cc(C(C)(C)C(F)(F)F)on4)cc3)nc2cc1OC [Ex. 8, reference compound]
IC50 (KDR kinase; [6]): 9 nM
IC50 (RET-wild type; [7]): 7 nM

COc1cc2cc(-c3ccc(CC(=O)Nc4cc(C(C)(C)C(F)(F)F)on4)cn3)cnc2cc1OC [Example 1, 2-[6-(6,7-Dimethoxyquinolin-3-yl)pyridin-3-yl]-N-[5-(1,1,1-trifluoro-2-methylpropan-2-yl)-1,2-oxazol-3-yl]acetamide]
IC50 (RET-wild type; Form: Free, read-out: IC50 (nM) RET): 18 nM
